Measurements from ChEMBL document CHEMBL4304815, “Photoswitchable Inhibitor of the Calcium Channel TRPV6” (ACS Med Chem Lett, 2019).
pIC50: −log10 of the molar value. Calls of active or inactive are those of the source. The rule behind the calls is not given here.

Legend:
[1] = target: T1, Transient receptor potential cation channel subfamily V member 6 (Homo sapiens) (UniProt Q9H1D0); assay: Inhibition of human TRPV6 expressed in HEK293 cells assessed as reduction of Cd2+ influx at 10 uM preincubated for 5 mins followed by CdCl2 addition measured under dark state by calcium-5 fluorescence dye-based FLIPR assay relative to control; assay type: cell-based
T1 sequence (whole entry): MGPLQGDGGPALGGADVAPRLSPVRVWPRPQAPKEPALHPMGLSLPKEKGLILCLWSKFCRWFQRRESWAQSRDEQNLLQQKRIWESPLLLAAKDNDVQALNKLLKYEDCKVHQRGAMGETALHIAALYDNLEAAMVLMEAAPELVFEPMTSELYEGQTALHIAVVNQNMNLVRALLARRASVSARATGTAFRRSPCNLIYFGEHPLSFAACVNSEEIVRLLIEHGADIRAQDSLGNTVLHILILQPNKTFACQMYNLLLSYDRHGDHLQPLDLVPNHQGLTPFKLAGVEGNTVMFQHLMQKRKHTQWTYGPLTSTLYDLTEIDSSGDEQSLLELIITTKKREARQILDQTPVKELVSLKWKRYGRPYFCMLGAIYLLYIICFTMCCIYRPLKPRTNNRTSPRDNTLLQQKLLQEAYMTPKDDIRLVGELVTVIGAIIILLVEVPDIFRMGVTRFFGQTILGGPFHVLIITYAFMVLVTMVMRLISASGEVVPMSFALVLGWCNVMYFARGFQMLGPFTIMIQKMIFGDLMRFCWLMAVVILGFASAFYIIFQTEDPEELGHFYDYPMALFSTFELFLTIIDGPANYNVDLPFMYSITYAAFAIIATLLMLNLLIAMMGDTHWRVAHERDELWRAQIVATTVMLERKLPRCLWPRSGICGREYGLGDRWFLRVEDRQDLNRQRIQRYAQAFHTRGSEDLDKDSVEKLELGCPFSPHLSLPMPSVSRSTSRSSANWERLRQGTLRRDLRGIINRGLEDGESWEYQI

[2] = target: T2, Transient receptor potential cation channel subfamily V member 6 (Homo sapiens, UniProt Q9H1D0); assay: Inhibition of human TRPV6 expressed in HEK293 cells assessed as reduction of Cd2+ influx preincubated for 5 mins followed by CdCl2 addition measured under dark state by calcium-5 fluorescence dye-based FLIPR assay; assay type: cell-based
T2 sequence (Q9H1D0 whole entry): T1 sequence (whole entry)

[3] = Drug isomerization in DMSO assessed as Z isomer level by measuring maximum absorbance at 500 uM irradiated with UV light at 365 nm for 5 mins measured immediately by UV-vis spectra analysis
[4] = Stability in DMSO assessed as parent compound remaining at 500 uM irradiated with UV light at 365 nm for 5 mins measured immediately by RP-UHPLC analysis
[5] = Drug isomerization in DMSO assessed as Z isomer level at 500 uM incubated for 48 hrs in dark by RP-UHPLC analysis
[6] = Solubility of the compound in DMSO/buffer at >10 uM; assay type: physicochemical
[7] = Stability in DMSO assessed as parent compound remaining at 500 uM incubated for 48 hrs in dark by RP-UHPLC analysis; assay type: physicochemical; conditions: read-out: Stability
[8] = Drug isomerization in DMSO assessed as Z isomer level at 500 uM irradiated with UV light at 365 nm for 5 mins measured immediately by RP-UHPLC analysis
[9] = Thermal isomerization of the compound in DMSO assessed as E isomer level at 500 uM preincubated for 48 hrs under dark condition followed by irradiated with UV light at 365 nm for 5 mins and subsequent irradiation with UV light at 470 nm for 5 mins measured immediately by UV-Vis spectroscopy
[10] = target: T2, Transient receptor potential cation channel subfamily V member 6; assay: Inhibition of human TRPV6 expressed in HEK293 cells assessed as reduction in Cd2+ influx preincubated for 5 mins followed by CdCl2 addition using 365 nm UV-light irradiated compound by calcium-5 fluorescence dye-based FLIPR assay; assay type: cell-based
[11] = target: T1, Transient receptor potential cation channel subfamily V member 6 (Homo sapiens); assay: Inhibition of human TRPV6 expressed in HEK293 cells assessed as reduction in Cd2+ influx at 10 uM preincubated for 5 mins followed by CdCl2 addition using 365 nm UV-light irradiated compound by calcium-5 fluorescence dye-based FLIPR assay; assay type: cell-based
[12] = Half life of the compound in DMSO assessed as thermal isomerization by measuring E isomer level at 500 uM incubated for 48 hrs under dark condition by UV-Vis spectroscopy; assay type: physicochemical
[13] = Drug isomerization in DMSO assessed as Z isomer level at 500 uM irradiated with UV light at 365 nm for 5 mins measured immediately by UV-vis spectra analysis
[14] = target: T1, Transient receptor potential cation channel subfamily V member 6 (Homo sapiens); assay: Inhibition of human YFP-fused TRPV6 expressed in HEK293 cells assessed as decrease in whole cell inward calcium current density at 10 uM at 50 mV holding potential under 365 nm UV-light irradiation by patch clamp assay; assay type: cell-based
[15] = target: T1, Transient receptor potential cation channel subfamily V member 6 (Homo sapiens); assay: Inhibition of human YFP-fused TRPV6 expressed in HEK293 cells assessed as decrease in whole cell inward calcium current density at 10 uM at 50 mV holding potential pre-irradiated with 365 nm UV-light followed by […] irradiation by patch clamp assay; assay type: cell-based
[16] = target: T1, Transient receptor potential cation channel subfamily V member 6 (Homo sapiens); assay: Inhibition of human peTFP-C1-TRPV6 expressed in HEK293 cells assessed as decrease in whole cell inward calcium current density at 10 uM at 50 mV holding potential by patch clamp assay; assay type: cell-based

| inhibition [1] [%] | solubility [6] | remaining at 48 h, 500 µM [7] [%] | inhibition [11] | half-life at 500 µM [12] [h] | Structure (SMILES) | Stability [4] [%] | Z isomer level [5] [%] | Z isomer level [8] [%] | Drug metabolism [9] | Drug metabolism [13] | other results |
| --- | --- | --- | --- | --- | --- | --- | --- | --- | --- | --- | --- |
| 70 | Insoluble | 100 |  |  | c1ccc(/N=N/c2ccc(CN3CCN([C@H]4CC[C@@H](c5ccccc5)CC4)CC3)cn2)cc1 | 50 | 0 | 50 |  |  | pIC50 [2]: 6.22; Activity [3]: 400 to 500 nm |
|  |  |  |  |  | c1ccc([C@H]2CC[C@@H](N3CCN(c4ccc(/N=N\c5cccnc5)cc4)CC3)CC2)cc1 |  |  |  | Metabolite detected |  |  |
|  |  |  | Active | 3.7 | c1ccc(/N=N\c2ccc(CN3CCN([C@H]4CC[C@@H](c5ccccc5)CC4)CC3)cn2)cc1 |  |  |  |  |  | pIC50 [10]: 6.22 |
| 30 | Insoluble | 100 |  |  | c1ccc(/N=N/c2ccc(N3CCN([C@H]4CC[C@@H](c5ccccc5)CC4)CC3)cn2)cc1 | 88 | 0 | 12 |  | Metabolite not detected |  |
|  | Insoluble | 100 |  |  | c1ccc([C@H]2CC[C@@H](N3CCN(c4ccc(/N=N/c5cccnc5)cc4)CC3)CC2)cc1 | 100 | 0 | 0 |  | Metabolite not detected |  |
|  | Insoluble | 93 |  |  | c1ccc(/N=N/c2ccc(N3CCN([C@H]4CC[C@@H](c5ccccc5)CC4)CC3)cc2)cc1 | 93 | 7 | 7 |  | Metabolite not detected |  |
|  |  |  | Active | 93.6 | c1ccc(/N=N\c2ccc(CN3CCN([C@H]4CC[C@@H](c5ccccc5)CC4)CC3)cc2)cc1 |  |  |  | Metabolite detected |  | pIC50 [10]: 5.77; inhibition [14]: Active; inhibition [15]: Active |
|  |  |  | Active | 0.137 | c1ccc(/N=N\c2ccc(N3CCN([C@H]4CC[C@@H](c5ccccc5)CC4)CC3)cn2)cc1 |  |  |  |  |  |  |
| 13 | Insoluble | 97 |  |  | c1ccc(/N=N/c2ccc(CN3CCN([C@H]4CC[C@@H](c5ccccc5)CC4)CC3)cc2)cc1 | 25 | 3 | 75 |  |  | pIC50 [2]: < 5.00; Activity [3]: 400 to 500 nm; inhibition [16]: Active |
|  |  |  |  |  | c1ccc(/N=N\c2ccc(N3CCN([C@H]4CC[C@@H](c5ccccc5)CC4)CC3)cc2)cc1 |  |  |  | Metabolite detected |  |  |
